These results are taken from PubChem BioAssay AID463204 (Broad Institute, 2010).

Active and inactive are the calls of the source.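 The calls were made as follows: active = AC50 no more than ten times the top concentration tested, that is within one log above it; inconclusive = flat curve fit with activity between 30% and 70%, or invalid poor fit; inactive = AC50 beyond ten times the top tested dose.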

The test relates to S. cerevisiae Mot1-301 ts growth rescue, BacTiter-Glo ATP luminescence. Briefly: growth rescue of Mot1-301 ts yeast, confirmation, SUMOylation pathway inhibitor project, whole organism, S. cerevisiae, Mot1-301 ts mutant, luminescence, dose retest (AID 463204).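 Also: growth at restrictive 38.5 degrees C of Mot1-301 OY566 strain; actives raise luminescence by restoring growth of the ts mutant at high temperature.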
Broadly, the AC50 is the concentration at which the activity in the assay is half-maximal. For `COc1cc(CN2CCN(c3ncccn3)CC2)cc(OC)c1`, the AC50 is > 42 µM (inactive).
`Cc1c(C(=O)Nc2cccc(F)c2)cnn1-c1ccccc1`: the AC50 is > 42 µM (inactive).
In the case of `O=C(c1ccc([N+](=O)[O-])cc1)N1CCN(c2ncc(Br)cn2)CC1`, the AC50 was > 42 µM (inactive).
Consider `COc1cccc(C(=O)NCc2ccc(-c3nc4ccccc4s3)cc2)c1`, for which the AC50 is > 42 µM (inactive).
As for `C=C(C)C(=O)OC1(C(F)(F)F)Oc2cc(C)ccc2NC1=O` (stereo not drawn), the AC50 is 4.67 µM.
Turning to `COc1ccccc1NC(=O)COC(=O)CC(C)(C)CC1=NS(=O)(=O)c2ccccc2N1`, the AC50 is > 42 µM (inactive).
`CCOC(=O)CNC(=O)c1cccnc1`: the AC50 is > 42 µM (inactive).
On to `CCOC(=O)C1=C(C)Nc2ncnn2C1/C=C/c1ccccc1` (stereo not drawn), for which the AC50 is > 42 µM (inactive).
Take `CC(=O)Nc1ccc(CN2CCCC(CO)(Cc3cccc(Cl)c3)C2)cc1` (stereo not drawn): the AC50 is > 42 µM (inactive).
As for `C/C=C/C(=O)OCC(=O)Nc1nc2ccc(C)cc2s1`, the AC50 was > 42 µM (inactive).
As for `Cc1sc2ncnc(N3CCC(C(=O)NNC(=O)COc4ccccc4F)CC3)c2c1C`, the AC50 is > 42 µM (inactive).
Consider `CCOC(=O)CCN(c1ccccc1)S(=O)(=O)c1ccc(-c2ccc(=O)[nH]n2)s1`, for which the AC50 is > 42 µM (inactive).
The same measure for `CCc1noc(C)c1C(=O)Nc1nc(-c2ccc(F)cc2)c(C)s1`: > 42 µM (inactive).
For `Cc1cc(C)n(-c2nc(-c3cccc(Cl)c3)cs2)n1`, the AC50 was > 42 µM (inactive).
Consider `CCc1ccc(NC(=O)N2CCC(c3ccccc3)C2)cc1` (stereo not drawn), for which the AC50 is > 42 µM (inactive).
In the case of `O=C(CCC(=O)OC(C(=O)c1ccccc1)c1ccccc1)Nc1ccccc1` (stereo not drawn), the AC50 was > 21 µM (inactive).
In the case of `CCn1c(C)c(C(C)=O)c(N2CCN(c3ccc(F)cc3)CC2)nc1=S` it was > 42 µM (inactive); in that of `Cc1ccc(S(=O)(=O)N2[C@@H](c3ccc(Br)cc3)C(C(=O)O)=C[C@H]2CC2CCCC2)cc1`, 3.51 µM.
Regarding `COCc1[nH][nH]c(=O)c1C=Nc1ccc(OC(F)(F)F)cc1`, the AC50 was > 42 µM (inactive).
As to `Nc1ccnc(=O)[nH]1`, the AC50 is > 42 µM (inactive).
The same measure for `CCNc1ccccc(C(=O)/C=C/c2ccc3c(c2)OCO3)c1=O`: > 42 µM (inactive).
For the compound `OCC[C@@H]1C[C@H](O)[C@@H](O)[C@]2(CCc3ccccc3CO2)O1`, the AC50 is > 42 µM (inactive).
As for `Cc1cc(C)cc(N(CC(=O)Nc2cccc(C)n2)S(=O)(=O)c2c(C)noc2C)c1`, the AC50 was > 42 µM (inactive).
In the case of `O=C(CN1CCN(C(=O)c2ccccc2)CC1)Nc1ncc(Br)cc1Br` it was > 42 µM (inactive).
In the case of `c1ccc(CNc2ccc3ccccc3n2)nc1` it was > 42 µM (inactive); in that of `Cc1ccc(CN(C)C(=O)c2ccc3c(c2)NC(=O)CS3)o1`, > 42 µM (inactive); in that of `CCOc1ccc(N(CC)S(=O)(=O)c2cccc3nsnc23)cc1`, > 42 µM (inactive).
As for `CC1CCN(CCCCOc2ccc(F)cc2)CC1`, the AC50 is > 42 µM (inactive).
The same measure for `O=C(c1ccco1)N1CCN(CC(=O)N2c3ccccc3CCc3ccccc32)CC1`: > 42 µM (inactive).
Turning to `COc1ccc(C(=O)OCC(=O)c2ccccc2)cc1S(=O)(=O)N1CCOCC1`, the AC50 is > 42 µM (inactive).
In the case of `CN(C(=O)COc1cc(=O)n(C)c2ccccc12)c1ccc(Cl)cc1` it was > 42 µM (inactive); in that of `COc1ccccc1C(=O)NCCNc1ccc([N+](=O)[O-])cc1Cl`, > 110 µM (inactive).
As for `CCOC(=O)CS(=O)(=O)c1ccc2ccccc2c1`, the AC50 was > 42 µM (inactive).
`Cc1nn(CCOc2ccccc2)c(=O)n1-c1ccccc1F`: the AC50 is > 42 µM (inactive).
On to `C/C(=N\NC(=O)c1cccc(N/N=C(\C)c2ccc([N+](=O)[O-])cc2)c1)c1ccc([N+](=O)[O-])cc1`, for which the AC50 is > 42 µM (inactive).
With `CCN(C(=O)Cn1nc(C)c([N+](=O)[O-])c1C)c1c(N)n(Cc2ccccc2)c(=O)[nH]c1=O`, the AC50 is > 42 µM (inactive).
With `COc1ccc(NC(=O)Cn2nnc(C(=O)Nc3ccc(F)c(Cl)c3)c2N)cc1`, the AC50 is > 42 µM (inactive).
Consider `CC(C)C1OC2(C)OC(=N)C1(C#N)C(C#N)(C#N)C2c1ccccc1` (stereo not drawn), for which the AC50 is > 42 µM (inactive).
With `O=C1CCC(=O)N1CCOP1(=O)COc2ccccc2OC1`, the AC50 was > 42 µM (inactive).
Take `Cc1ccc(S(=O)(=O)NCC(C)n2cncn2)cc1` (stereo not drawn): the AC50 was > 42 µM (inactive).
In the case of `COc1ccc(C(=O)N(CCc2ccccc2)Cc2ccccc2)c(OC)n1`, the AC50 was > 42 µM (inactive).
As to `Cc1nc(N2CCN(c3ccccn3)CC2)c2c(C)c(C(=O)N3CCN(c4ccccc4F)CC3)sc2n1`, the AC50 was > 42 µM (inactive).
`O=C1CCN(Cc2ccccc2)CCN1CCOc1ccccc1`: the AC50 is > 42 µM (inactive).
As for `CN(C(=O)COC(=O)c1cc(-c2ccc(Cl)s2)nc2ccccc12)C1CCS(=O)(=O)C1` (stereo not drawn), the AC50 is > 42 µM (inactive).
In the case of `C[C@@]12C(=O)Nc3ccc(F)cc3C(=O)N1[C@H]1c3ccccc3OC[C@@H]1[C@@H]2c1ccccc1`, the AC50 was 3.24 µM.
Turning to `CC(C)NC(=O)COc1ccc(S(=O)(=O)N(C)Cc2ccccc2)cc1`, the AC50 was > 42 µM (inactive).
With `O=C(NCc1csc(-c2cccs2)n1)Nc1ccc(F)cc1F`, the AC50 was > 42 µM (inactive).
Turning to `O=C1c2ccccc2C(=O)N1CCSc1ccccc1`, the AC50 is > 42 µM (inactive).
`C/C(=N\NC(=S)Nc1ccccc1)C1Cc2ccccc2C(=O)O1` (stereo not drawn): the AC50 was > 42 µM (inactive).
The same measure for `CCCOc1ccc(C(=O)NCc2ccco2)cc1`: > 42 µM (inactive).
The same measure for `CCOc1ccc(C)cc1S(=O)(=O)n1nc(C)cc1C`: > 42 µM (inactive); for `O=C(C[n+]1ccc(C(=O)N/N=C/c2ccc(Cl)cc2Cl)cc1)c1ccccc1`: > 42 µM (inactive); for `CCC(CC)C(=O)Nc1ccc(S(=O)(=O)Nc2nccs2)cc1`: > 42 µM (inactive).
In the case of `N#CCN(N=Nc1ccccc1)c1ccccc1` it was > 42 µM (inactive); in that of `Cc1cc(C)n(-c2ccc(C(=O)C(C#N)c3nc4ccccc4n3C)cc2)n1` (stereo not drawn), > 42 µM (inactive).
As to `CC(=O)Nc1ccc(-c2csc(NC(=O)C3CC(=O)N(c4ccc5c(c4)OCCO5)C3)n2)cc1` (stereo not drawn), the AC50 is > 42 µM (inactive).
`O=C(C1CCC(CNc2c(N3CCCCC3)c(=O)c2=O)CC1)N1CCN(C2CCCCC2)CC1` (stereo not drawn): the AC50 was > 42 µM (inactive).
As to `N#CC1=C(N)OC2=C(C(=O)CCC2)C1C1CC=CCC1` (stereo not drawn), the AC50 is > 42 µM (inactive).
In the case of `CC(N=C(NC#N)Nc1ccncc1)C(C)(C)C` (stereo not drawn), the AC50 is > 42 µM (inactive).
Take `Cn1c(O)c(C(c2ccccn2)c2c(O)n(C)c(=S)n(C)c2=O)c(=O)n(C)c1=S`: the AC50 is > 42 µM (inactive).
For `O=C(COC(=O)c1cc([N+](=O)[O-])ccc1N1CCOCC1)Nc1cccc(F)c1`, the AC50 was > 42 µM (inactive).
`C=C(Cl)COC(=O)C1C2C=CC(C2)C1C(=O)O` (stereo not drawn): the AC50 was > 42 µM (inactive).
The same measure for `c1ccc(-c2cc3ccccc3cn2)cc1`: 35 µM; for `O=C(c1ccco1)N1CCN(C(=O)C2Cc3ccccc3CN2S(=O)(=O)c2ccc(F)cc2)CC1` (stereo not drawn): > 42 µM (inactive); for `Cc1ccccc1NC1=NCCCS1`: > 42 µM (inactive).
The same measure for `CCCCOc1ccc(C(O)C(CN2CCOCC2)c2ccccc2)cc1` (stereo not drawn): > 42 µM (inactive).
In the case of `CN(Cc1ccccc1)c1ccc(S(=O)(=O)N2CCC(C(=O)O)CC2)cc1[N+](=O)[O-]` it was > 42 µM (inactive); in that of `O=C(CSc1ncccn1)c1ccccc1Br`, > 42 µM (inactive); in that of `N#CCSc1nc2c(c(C3CC=CCC3)c1C#N)CCC2` (stereo not drawn), > 42 µM (inactive).
With `CC(C)(C)n1cnc2cc(NC(=O)c3ccc(Cl)cc3)ccc21`, the AC50 was > 42 µM (inactive).
The same measure for `CCS(=O)(=O)N1CCCC(C(=O)NCc2cccnc2)C1` (stereo not drawn): > 42 µM (inactive); for `O=C(Nc1ccc(F)cc1)c1cccnn1`: > 42 µM (inactive).
Consider `O=C(COc1ccccc1)Nc1ccc(OC(F)(F)C(F)F)c(NC(=O)COc2ccccc2)c1`, for which the AC50 was > 42 µM (inactive).
Turning to `COc1ccc(OCC(O)CN2C(=O)NC(C)(C)C2=O)cc1` (stereo not drawn), the AC50 was > 42 µM (inactive).
In the case of `CCOc1ccccc1C(=O)NCc1ccc2c(c1)OCO2`, the AC50 is > 42 µM (inactive).
In the case of `CCn1c(SCC(=O)Nc2ccc(NC(=O)c3ccco3)cc2)nnc1-c1cccs1`, the AC50 was > 42 µM (inactive).
Consider `O=C(NCc1ccccn1)C1CC(c2ccc(Cl)c(Cl)c2)=NO1` (stereo not drawn), for which the AC50 is > 42 µM (inactive).
`CN(c1ccccc1)S(=O)(=O)c1ccc(C(=O)NCC2CCCO2)cc1` (stereo not drawn): the AC50 is > 21 µM (inactive).
In the case of `O=C(CN1CCN(Cc2ccc(F)cc2)CC1)NCc1ccccc1` it was > 42 µM (inactive); in that of `O=C(Nc1ncccn1)c1ccc(C(F)(F)F)cc1`, > 42 µM (inactive); in that of `CCC(C(=O)Nc1cccnc1)c1ccccc1` (stereo not drawn), > 42 µM (inactive).
`CCC1C(c2ccccc2)NC(c2ccccc2)CC1(O)c1ccc(F)cc1` (stereo not drawn): the AC50 was > 42 µM (inactive).
On to `O=C(Nc1ccc2[nH]c(=O)[nH]c2c1)c1c(F)c(F)c(F)c(F)c1F`, for which the AC50 was > 42 µM (inactive).
Regarding `COc1ccc(NC(=O)C2CCN(c3cc(C)nc(-c4ccccc4)n3)CC2)cc1`, the AC50 is > 42 µM (inactive).
Turning to `COc1ccccc1CCNC(=O)/C(=C/c1cccnc1)NC(=O)c1ccccc1`, the AC50 is > 42 µM (inactive).
As for `COC(=O)C1C(c2ccc(OC)c(OC)c2)NC(c2ccc(OC)c(OC)c2)C(C(=O)OC)S1(=O)=O` (stereo not drawn), the AC50 is > 42 µM (inactive).
For the compound `COC(=O)C(NC(C)=O)(Nc1nc2ccc(S(C)(=O)=O)cc2s1)C(F)(F)F` (stereo not drawn), the AC50 is > 42 µM (inactive).
`Cc1cnc(C(=O)OCC(=O)Nc2ccc(C)c(S(=O)(=O)N(C)C)c2)cn1`: the AC50 is > 42 µM (inactive).
